The structures appear in SMILES notation.

Here are results for 28 compounds from patent US7960584B2, “Compounds, isomer thereof, or pharmaceutically acceptable salts thereof as vanilloid receptor antagonist; and pharmaceutical compositions containing the same” (Amorepacific Corporation, priority 2005, dated 2011).

One data set addresses T1, vanilloid receptor (Rattus norvegicus, UniProt O35433).
T1 construct: DRG nerve cells from the primary culture of 2 days were equilibrated; endogenous in cells; host or cells: primary culture of dorsal root ganglion neurons from neonatal SD rats
Kind of data set: 45Ca influx test in primary cultured DRG neurons (capsaicin-induced calcium uptake). The class given is cell-based. Conditions: neonatal SD rat DRG neurons; capsaicin 0.5 μM; 45Ca 10 μCi/ml; 10 min at room temperature. The protocol:
1) Separation of Spinal Dorsal Root Ganglia (DRG) in Newborn Rats and Primary Culture Thereof
Neonatal (2-3 day old or younger than 2-3 day old) SD rats were put in ice for 5 minutes to anesthetize and disinfected with 70% ethanol. DRG of all part of spinal cord were dissected (Wood et al., 1988, J. Neurosci. 8, pp 3208-3220) and collected in DME/F12 medium to which 1.2 g/l sodium bicarbonate, 50 mg/l gentamycin were added. The DRG were incubated sequentially at 37° C. for 30 min in 200 U/ml collagenase and 2.5 mg/ml trypsin, separately. The ganglia were washed twice with DME/F12 medium supplemented with 10% horse serum, triturated through a fire-polished Pasteur pipette, filtered through Nitex 80 membrane to obtain single cell suspension and the suspension was washed once more. This was subjected to centrifugation, then resuspended in cell culture medium at certain level of cell density. As the cell culture medium, DME/F12 medium supplemented with 10% horse serum was diluted with identical medium conditioned by C6 glioma cells 2 days on a confluent monolayer (1:1), and NGF (Nerve Growth Factor) was added to adjust 200 ng/ml as final concentration. After the cells were grown 2 days in medium where cytosine arabinoside (Ara-C, 100 μM) was added to kill dividing nonneuronal cells, medium was changed to one without Ara-C. The resuspended cells were plated at a density of 1500-2000 neurons/well onto Terasaki plates previously coated with 10 μg/ml poly-D-ornithine.
2) ^45Ca Influx Experiments
DRG nerve cells from the primary culture of 2 days were equilibrated by washing 4 times with HEPES (10 mM, pH 7.4)-buffered Ca^2+, Mg^2+-free HBSS (H-HBSS). The solution in each well was removed from the individual well. Medium containing the test compound plus capsaicin (final concentration 0.5 μM) and ^45Ca (final concentration 10 μCi/ml) in H-HBSS was added to each well and incubated at room temperature for 10 mins. Terasaki plates were washed five times with H-HBSS and dried at room temperature. To each well, 0.3% SDS (10 μl) was added to elute ^45Ca. After the addition of scintillation cocktail of into each well, the amount of ^45Ca influx into neuron was measured by counting radioactivity.

A further data set deals with Male ICR mice. The experiment in a line: Analgesic activity test: mouse writhing test induced with phenyl-p-quinone. The format is in vivo. Conditions: dose 1 mg/kg intraperitoneally 30 min before phenyl-p-quinone 4.5 mg/kg i.p.; writhes counted 6-12 min after. The method, then:
2. Analgesic Activity Test: Mouse Writhing Test by Inducing with Phenyl-p-quinone
Male ICR mice (mean body weight 25 g) were maintained in a controlled lighting environment (12 h on/12 h off) for experiment. Animals received an intraperitoneal injection of 0.3 ml of the chemical irritant phenyl-p-quinone (dissolved in saline containing 5% ethanol to be a dose of 4.5 mg/kg) and 6 mins later, the number of abdominal constrictions was counted in the subsequent 6 mins period. Animals (10 animals/group) received 0.2 ml of test compounds solution in vehicle of ethanol/Tween 80/saline (10/10/80) intraperitoneally 30 min before the injection of phenyl-p-quinone. A reduction in the number of writhes responding to the test drug compound relative to the number responding in saline control group was considered to be indicative of an analgesic effect. Analgesic effect was calculated by % inhibition equation (% inhibition=(C−T)/C×100), wherein C and T represent the number of writhes in control and compound-treated group, respectively (Table 2).

T1 sequence (O35433 whole entry): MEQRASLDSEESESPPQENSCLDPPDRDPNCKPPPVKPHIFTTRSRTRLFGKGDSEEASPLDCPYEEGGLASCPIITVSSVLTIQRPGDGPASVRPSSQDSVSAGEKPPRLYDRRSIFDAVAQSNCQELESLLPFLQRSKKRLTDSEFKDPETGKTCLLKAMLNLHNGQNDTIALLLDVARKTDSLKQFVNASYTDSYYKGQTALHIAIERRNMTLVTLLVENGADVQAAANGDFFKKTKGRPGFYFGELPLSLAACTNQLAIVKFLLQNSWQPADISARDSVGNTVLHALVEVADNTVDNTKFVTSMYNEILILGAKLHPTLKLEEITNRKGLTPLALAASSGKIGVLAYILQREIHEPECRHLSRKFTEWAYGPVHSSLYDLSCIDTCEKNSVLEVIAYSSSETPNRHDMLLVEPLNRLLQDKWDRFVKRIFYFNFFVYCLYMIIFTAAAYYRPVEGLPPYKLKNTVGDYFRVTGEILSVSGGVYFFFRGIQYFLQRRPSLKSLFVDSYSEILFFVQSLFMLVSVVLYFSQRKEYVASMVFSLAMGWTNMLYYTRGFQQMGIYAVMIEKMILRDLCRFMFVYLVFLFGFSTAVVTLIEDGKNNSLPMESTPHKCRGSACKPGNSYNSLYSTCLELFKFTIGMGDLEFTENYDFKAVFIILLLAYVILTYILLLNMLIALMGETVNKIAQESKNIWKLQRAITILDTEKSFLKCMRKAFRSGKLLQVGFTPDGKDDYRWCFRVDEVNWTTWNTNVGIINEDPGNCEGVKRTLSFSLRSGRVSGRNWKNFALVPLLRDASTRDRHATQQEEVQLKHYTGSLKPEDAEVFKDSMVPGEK

For the compound `CC(C)(C)c1ccc(/C=C/C(=O)NCc2ccc(NS(C)(=O)=O)c(Cl)c2)cc1` [Example 2, 3-(4-t-Butyl-phenyl)-N-(3-chloro-4-methanesulfonylamino-benzyl)-acrylamide], the IC50 (as a rule, the concentration at which inhibition is half-maximal) at vanilloid receptor amounted to 260 nM.
Take `Cc1cc(CNC(=O)/C=C/c2ccc(C(C)(C)C)cc2)ccc1NS(C)(=O)=O` [Example 3, 3-(4-t-Butyl-phenyl)-N-(3-methyl-4-methanesulfonylamino-benzyl)-acrylamide]: the IC50 on vanilloid receptor is 290 nM.
With `CC(C)(C)c1ccc(/C=C/C(=O)NCc2cc(F)c(NS(C)(=O)=O)c(F)c2)cc1` [Example 4, 3-(4-t-Butyl-phenyl)-N-(3,5-difluoro-4-methanesulfonylamino-benzyl)-acrylamide], the IC50 at vanilloid receptor is 310 nM.
As for `CC(C)(C)c1ccc(/C=C/C(=O)NCc2cc(F)c(NS(C)(=O)=O)cc2F)cc1` [Example 5, 3-(4-t-Butyl-phenyl)-N-(2,5-difluoro-4-methanesulfonylamino-benzyl)-acrylamide], on vanilloid receptor, the IC50 stood at 210 nM.
As for `CC(C)(C)c1ccc(/C=C/C(=O)NCc2cc(Cl)c(NS(C)(=O)=O)c(I)c2)cc1` [Example 6, 3-(4-t-Butylphenyl)-N-(3-chloro-5-iodo-4-methanesulfonylamino-benzyl)acrylamide], the IC50 at vanilloid receptor was found to be 350 nM.
On the same count and under the same terms, the same measure for `Cc1cc(CNC(=O)/C=C/c2ccc(C(C)(C)C)cc2)cc(Cl)c1NS(C)(=O)=O` [Example 7, 3-(4-t-Butyl-phenyl)-N-(3-chloro-4-methanesulfonylamino-5-methylbenzyl)acrylamide]: 360 nM.
Take `CC(C)(C)c1ccc(/C=C/C(=O)NCc2cc(F)c(NS(C)(=O)=O)c(I)c2)cc1` [Example 8, 3-(4-t-butylphenyl)-N-(3-fluoro-5-iodo-4-methanesulfonylaminobenzyl)acrylamide]: the IC50 on vanilloid receptor is 180 nM.
With `Cc1cc(CNC(=O)/C=C/c2ccc(C(C)(C)C)cc2)cc(F)c1NS(C)(=O)=O` [Example 9, 3-(4-t-Butyl-phenyl)-N-(3-fluoro-4-methanesulfonylamino-5-methyl-benzyl)-acrylamide], the IC50 on vanilloid receptor is 360 nM.
Turning to `C/C(=C\c1ccc(C(C)(C)C)cc1)C(=O)NCc1ccc(NS(C)(=O)=O)cc1` [Example 10, 3-(4-t-butylphenyl)-N-(4-methanesulfonylaminobenzyl)-2-methyl-acrylamide], the IC50 at vanilloid receptor was determined as 440 nM.
Regarding `C/C(=C\c1ccc(C(C)(C)C)cc1)C(=O)N[C@H](C)c1ccc(NS(C)(=O)=O)cc1` [Example 11, 3-(4-t-Butylphenyl)-N-[1-(R)-(4-methanesulfonylaminophenyl)ethyl]-2-methylacrylamide], in the data set on Male ICR mice, the “Analgesic effect (% Inhibition)” value is on record as 56 % Inhibition. For the same compound, the IC50 at vanilloid receptor amounted to 46 nM.
Consider `C/C(=C\c1ccc(C(C)(C)C)cc1)C(=O)NCc1ccc(NS(C)(=O)=O)c(F)c1` [Example 12, 3-(4-t-Butylphenyl)-N-(3-fluoro-4-methanesulfonylaminobenzyl)-2-methylacrylamide], for which the IC50 on vanilloid receptor worked out at 120 nM.
For `C/C(=C\C(=O)NCc1ccc(NS(C)(=O)=O)c(F)c1)c1ccc(C(C)(C)C)cc1` [Example 13, 3-(4-t-Butyl-phenyl)-but-2-enoic acid 3-fluoro-4-methanesulfonylamino-benzylamide], the IC50 at vanilloid receptor amounted to 150 nM.
Take `C/C(=C\c1ccc(C(C)(C)C)cc1)C(=O)N[C@H](C)c1ccc(NS(C)(=O)=O)c(F)c1` [Example 14, 3-(4-t-Butyl-phenyl)-N-[1-(3-fluoro-4-methanesulfonylaminophenyl)ethyl]-2-methylacrylamide]: the “Analgesic effect (% Inhibition)” value with Male ICR mice is 42 % Inhibition. The IC50 at vanilloid receptor is 41 nM.
Take `CC(C)(C)c1ccc(C#CC(=O)NCc2ccc(NS(C)(=O)=O)cc2)cc1` [Example 15, 3-(4-t-butylphenyl)-N-[4-(methanesulfonylamino)benzyl]propiolicamide]: the IC50 at vanilloid receptor stood at 590 nM.
Same read-out and setting: the same measure for `C[C@@H](NC(=O)C#Cc1ccc(C(C)(C)C)cc1)c1ccc(NS(C)(=O)=O)cc1` [Example 16, 3-(4-t-butylphenyl)-N-[1-(R)-(4-methanesulfonylaminophenyl)ethyl]propiolicamide]: 100 nM.
With `CC(C)(C)c1ccc(CNC(=O)NCc2cc(F)c(NS(C)(=O)=O)c(I)c2)cc1` [Example 17, N-{4-[3-(4-t-butylbenzyl)ureidomethyl]-2-fluoro-6-iodophenyl}methanesulfonamide], the IC50 on vanilloid receptor stood at 290 nM.
With `CC(C)(C)c1ccc(CNC(=O)NCc2cc(I)c(NS(C)(=O)=O)cc2Cl)cc1` [Example 18, N-{4-[3-(4-t-butylbenzyl)ureidomethyl]-5-chloro-2-Iodophenyl}methanesulfonamide], the IC50 on vanilloid receptor was 530 nM.
For the compound `CCc1cc(CNC(=O)NCc2ccc(C(C)(C)C)cc2)cc(F)c1NS(C)(=O)=O` [Example 19, N-{4-[3-(4-t-butylbenzyl)ureidomethyl]-2-ethyl-6-fluorophenyl}methanesulfonamide], the IC50 on vanilloid receptor is 150 nM.
As for `CC(C)(C)c1ccc(CNC(=O)NCc2ccc(NS(C)(=O)=O)c(F)c2)cc1` [Example 20, N-{4-[3-(4-t-butylbenzyl)ureidomethyl]-2-fluorophenyl}methanesulfonamide], the “Analgesic effect (% Inhibition)” value with Male ICR mice is reported as 82 % Inhibition.
Regarding `Cc1cc(CNC(=O)NCc2ccc(C(C)(C)C)cc2)ccc1NS(C)(=O)=O` [Example 21, N-{4-[3-(4-t-butylbenzyl)ureidomethyl]-2-methylphenyl}methane sulfonamide], the “Analgesic effect (% Inhibition)” value in the data set with Male ICR mice is reported as 58 % Inhibition. The half-maximal inhibitory concentration (IC50) at vanilloid receptor stood at 83 nM.
Consider `CC(C)(C)c1ccc(CNC(=O)NCc2ccc(NS(C)(=O)=O)c(Cl)c2)cc1` [Example 22, N-{4-[3-(4-t-butylbenzyl)ureidomethyl]-2-chlorophenyl}methane sulfonamide], for which the melting point – broadly, the temperature of the solid-liquid transition – is 60 to 61 °C. At vanilloid receptor, the IC50 is 240 nM.
Turning to `CC(C)(C)c1ccc(CNC(=O)NCc2ccc(NS(C)(=O)=O)c([N+](=O)[O-])c2)cc1` [Example 23, N-{4-[3-(4-t-butylbenzyl)ureidomethyl]-2-nitrophenyl}methane sulfonamide], on vanilloid receptor, the half-maximal inhibitory concentration (IC50) is 240 nM.
`CC(C)(C)c1ccc(CNC(=O)NCc2ccc(NS(C)(=O)=O)c(I)c2)cc1` [Example 24, N-{4-[3-(4-t-Butyl-benzyl)-ureidomethyl]-2-iodo-phenyl}-methanesulfonamide]: on vanilloid receptor, the IC50 came to 390 nM.
Regarding `CC(C)(C)c1ccc(CNC(=O)NCc2cc(F)c(NS(C)(=O)=O)c(F)c2)cc1` [Example 25, N-{4-[3-(4-t-Butyl-benzyl)-ureidomethyl]-2,6-difluoro-phenyl}-methanesulfonamide], on vanilloid receptor, the IC50 stood at 470 nM.
With `CC(C)(C)c1ccc(CNC(=O)NCc2cc(F)c(NS(C)(=O)=O)cc2F)cc1` [Example 26, N-{4-[3-(4-t-Butyl-benzyl)-ureidomethyl]-2,5-difluoro-phenyl}-methanesulfonamide], at vanilloid receptor, the IC50 came to 560 nM.
For `Cc1cc(CNC(=O)NCc2ccc(C(C)(C)C)cc2)cc(Cl)c1NS(C)(=O)=O` [Example 27, N-{4-[3-(4-t-Butylbenzyl)ureidomethyl]-2-chloro-6-methylphenyl}methanesulfonamide], the IC50 at vanilloid receptor was 190 nM.
Still for that read-out and setting: under `CCc1cc(CNC(=O)NCc2ccc(C(C)(C)C)cc2)c(Cl)cc1NS(C)(=O)=O` [Example 28, N-{4-[3-(4-t-Butylbenzyl)-ureidomethyl]-5-chloro-2-ethylphenyl}methanesulfonamide] stands 290 nM.
As for `Cc1cc(CNC(=O)NCc2ccc(C(C)(C)C)cc2)cc(F)c1NS(C)(=O)=O` [Example 29, N-{4-[3-(4-t-Butyl-benzyl)-ureidomethyl]-2-fluoro-6-methyl-phenyl}-methanesulfonamide], the “Analgesic effect (% Inhibition)” value with Male ICR mice was determined as 54 % Inhibition. The IC50 on vanilloid receptor worked out at 73 nM.
